PubChem BioAssay (NCI)
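Briefly, cells in 96-well plates were exposed to five compound concentrations for 48 h, and endpoints were estimated by linear interpolation. The concentration for 50% growth inhibition is given as GI50. Definition used: TGI = concentration required for complete inhibition of growth.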

Columns and labels:
Experiment in all cases: growth of human tumour cells (NCI), 48 h
786-0 renal = system: 786-0 renal
A498 renal = system: A498 renal
A549 NSCLC = system: A549 NSCLC
ACHN renal = system: ACHN renal
BT-549 breast = system: BT-549 breast
CAKI-1 renal = system: CAKI-1 renal
CCRF-CEM leukemia = system: CCRF-CEM leukemia
COLO 205 colon = system: COLO 205 colon
DU-145 prostate = system: DU-145 prostate
EKVX NSCLC = system: EKVX NSCLC
HCC-2998 colon = system: HCC-2998 colon
HCT-116 colon = system: HCT-116 colon
HCT-15 colon = system: HCT-15 colon
HL-60(TB) leukemia = system: HL-60(TB) leukemia
HOP-62 NSCLC = system: HOP-62 NSCLC
HOP-92 NSCLC = system: HOP-92 NSCLC
HS 578T breast = system: HS 578T breast
HT29 colon = system: HT29 colon
IGROV1 ovarian = system: IGROV1 ovarian
K-562 leukemia = system: K-562 leukemia
KM12 colon = system: KM12 colon
LOX IMVI melanoma = system: LOX IMVI melanoma
M14 melanoma = system: M14 melanoma
MALME-3M melanoma = system: MALME-3M melanoma
MCF7 breast = system: MCF7 breast
MDA-MB-231 breast = system: MDA-MB-231 breast
MDA-MB-435 = system: MDA-MB-435
MOLT-4 leukemia = system: MOLT-4 leukemia
NCI-H226 lung = system: NCI-H226 lung
NCI-H23 lung = system: NCI-H23 lung
NCI-H460 lung = system: NCI-H460 lung
NCI-H522 lung = system: NCI-H522 lung
NCI/ADR-RES ovarian = system: NCI/ADR-RES ovarian
OVCAR-3 ovarian = system: OVCAR-3 ovarian
OVCAR-4 ovarian = system: OVCAR-4 ovarian
OVCAR-5 ovarian = system: OVCAR-5 ovarian
OVCAR-8 ovarian = system: OVCAR-8 ovarian
PC-3 prostate = system: PC-3 prostate
RPMI-8226 leukemia = system: RPMI-8226 leukemia
RXF 393 renal = system: RXF 393 renal
SF-268 CNS = system: SF-268 CNS
SF-295 CNS = system: SF-295 CNS
SF-539 CNS = system: SF-539 CNS
SK-MEL-2 melanoma = system: SK-MEL-2 melanoma
SK-MEL-28 melanoma = system: SK-MEL-28 melanoma
SK-MEL-5 melanoma = system: SK-MEL-5 melanoma
SK-OV-3 ovarian = system: SK-OV-3 ovarian
SN12C renal = system: SN12C renal
SNB-19 CNS = system: SNB-19 CNS
SNB-75 CNS = system: SNB-75 CNS
SR leukemia = system: SR leukemia
SW-620 colon = system: SW-620 colon
T-47D breast = system: T-47D breast
TK-10 renal = system: TK-10 renal
U251 CNS = system: U251 CNS
UACC-257 melanoma = system: UACC-257 melanoma
UACC-62 melanoma = system: UACC-62 melanoma
UO-31 renal = system: UO-31 renal

How did the GI50 (786-0 renal) turn out when `NS(=O)(=O)N(c1cc(C(F)(F)F)cc(C(F)(F)F)c1)C1CCN(Cc2ccc(F)cc2)CC1` was run?
Its GI50 is 11.4 µM.

What about the TGI (786-0 renal) of the same compound?
Its TGI is 23.5 µM.

And the GI50 (A498 renal)?
The GI50 was 12.3 µM.

What about the TGI (A498 renal) of the same compound?
The TGI was 26.1 µM.

And the GI50 (A549 NSCLC)?
Its GI50 is 12.4 µM.

What about the TGI (A549 NSCLC) of the same compound?
Its TGI is 29.1 µM.

What about the GI50 (ACHN renal) of the same compound?
The GI50 was 11.2 µM.

And the TGI (ACHN renal)?
Its TGI is 23.3 µM.

What about the GI50 (BT-549 breast) of the same compound?
The GI50 was 12.5 µM.

What about the TGI (BT-549 breast) of the same compound?
The TGI was 24.9 µM.

And the GI50 (CAKI-1 renal)?
Its GI50 is 7.21 µM.

What about the TGI (CAKI-1 renal) of the same compound?
The TGI was 20.4 µM.

And the GI50 (CCRF-CEM leukemia)?
Its GI50 is 12 µM.

And the TGI (CCRF-CEM leukemia)?
The TGI was 36.3 µM.

What about the GI50 (COLO 205 colon) of the same compound?
The GI50 was 1.64 µM.

And the TGI (COLO 205 colon)?
Its TGI is 3.08 µM.

What about the GI50 (DU-145 prostate) of the same compound?
The GI50 was 13.5 µM.

And the TGI (DU-145 prostate)?
Its TGI is 26.3 µM.

And the GI50 (EKVX NSCLC)?
The GI50 was 11.2 µM.

And the TGI (EKVX NSCLC)?
Its TGI is 23.8 µM.

And the GI50 (HCC-2998 colon)?
Its GI50 is 1.83 µM.

And the TGI (HCC-2998 colon)?
The TGI was 3.56 µM.

What about the GI50 (HCT-116 colon) of the same compound?
Its GI50 is 7.38 µM.

And the TGI (HCT-116 colon)?
The TGI was 19.8 µM.

And the GI50 (HCT-15 colon)?
The GI50 was 7.3 µM.

And the TGI (HCT-15 colon)?
The TGI was 21.8 µM.

What about the GI50 (HL-60(TB) leukemia) of the same compound?
The GI50 was 9.11 µM.

And the TGI (HL-60(TB) leukemia)?
Its TGI is 28.6 µM.

And the GI50 (HOP-62 NSCLC)?
Its GI50 is 3.51 µM.

And the TGI (HOP-62 NSCLC)?
Its TGI is 14.1 µM.

And the GI50 (HOP-92 NSCLC)?
The GI50 was 1.87 µM.

What about the TGI (HOP-92 NSCLC) of the same compound?
Its TGI is 15.2 µM.

And the GI50 (HS 578T breast)?
Its GI50 is 13.8 µM.

What about the TGI (HS 578T breast) of the same compound?
Its TGI is 33.6 µM.

And the GI50 (HT29 colon)?
Its GI50 is 2.68 µM.

What about the TGI (HT29 colon) of the same compound?
The TGI was 7.51 µM.

What about the GI50 (IGROV1 ovarian) of the same compound?
Its GI50 is 4.89 µM.

And the TGI (IGROV1 ovarian)?
The TGI was 18 µM.

What about the GI50 (K-562 leukemia) of the same compound?
Its GI50 is 3.68 µM.

And the TGI (K-562 leukemia)?
The TGI was 19 µM.

What about the GI50 (KM12 colon) of the same compound?
The GI50 was 5.16 µM.

And the TGI (KM12 colon)?
The TGI was 17 µM.

And the GI50 (LOX IMVI melanoma)?
The GI50 was 3.83 µM.

What about the TGI (LOX IMVI melanoma) of the same compound?
The TGI was 13.7 µM.

And the GI50 (M14 melanoma)?
Its GI50 is 6.12 µM.

What about the TGI (M14 melanoma) of the same compound?
The TGI was 18.4 µM.

And the GI50 (MALME-3M melanoma)?
Its GI50 is 2.31 µM.

And the TGI (MALME-3M melanoma)?
The TGI was 9.5 µM.

What about the GI50 (MCF7 breast) of the same compound?
Its GI50 is 5.44 µM.

And the TGI (MCF7 breast)?
Its TGI is 18.5 µM.

And the GI50 (MDA-MB-231 breast)?
Its GI50 is 12.1 µM.

And the TGI (MDA-MB-231 breast)?
The TGI was 26.2 µM.

And the GI50 (MDA-MB-435)?
The GI50 was 6.4 µM.

And the TGI (MDA-MB-435)?
The TGI was 19.7 µM.

What about the GI50 (MOLT-4 leukemia) of the same compound?
Its GI50 is 8.51 µM.

What about the TGI (MOLT-4 leukemia) of the same compound?
The TGI was 29.6 µM.

What about the GI50 (NCI-H226 lung) of the same compound?
The GI50 was 6.73 µM.

And the TGI (NCI-H226 lung)?
The TGI was 21.7 µM.

And the GI50 (NCI-H23 lung)?
Its GI50 is 10.4 µM.

What about the TGI (NCI-H23 lung) of the same compound?
Its TGI is 22.1 µM.

And the GI50 (NCI-H460 lung)?
Its GI50 is 13.2 µM.

And the TGI (NCI-H460 lung)?
The TGI was 31 µM.

What about the GI50 (NCI-H522 lung) of the same compound?
Its GI50 is 3.52 µM.

What about the TGI (NCI-H522 lung) of the same compound?
The TGI was 13.4 µM.

And the GI50 (NCI/ADR-RES ovarian)?
Its GI50 is 6.72 µM.

What about the TGI (NCI/ADR-RES ovarian) of the same compound?
The TGI was 19.4 µM.

What about the GI50 (OVCAR-3 ovarian) of the same compound?
The GI50 was 7.6 µM.

And the TGI (OVCAR-3 ovarian)?
Its TGI is 20.4 µM.

And the GI50 (OVCAR-4 ovarian)?
The GI50 was 10.5 µM.

What about the TGI (OVCAR-4 ovarian) of the same compound?
The TGI was 22.2 µM.

What about the GI50 (OVCAR-5 ovarian) of the same compound?
The GI50 was 10.9 µM.

What about the TGI (OVCAR-5 ovarian) of the same compound?
The TGI was 23.2 µM.

And the GI50 (OVCAR-8 ovarian)?
The GI50 was 15.5 µM.

What about the TGI (OVCAR-8 ovarian) of the same compound?
The TGI was 33.9 µM.

And the GI50 (PC-3 prostate)?
The GI50 was 4.54 µM.

What about the TGI (PC-3 prostate) of the same compound?
Its TGI is 17.6 µM.

And the GI50 (RPMI-8226 leukemia)?
Its GI50 is 5.24 µM.

What about the TGI (RPMI-8226 leukemia) of the same compound?
Its TGI is 22.3 µM.

What about the GI50 (RXF 393 renal) of the same compound?
Its GI50 is 4.42 µM.

What about the TGI (RXF 393 renal) of the same compound?
Its TGI is 16.6 µM.

And the GI50 (SF-268 CNS)?
The GI50 was 10.9 µM.

And the TGI (SF-268 CNS)?
Its TGI is 22.9 µM.

What about the GI50 (SF-295 CNS) of the same compound?
Its GI50 is 13.8 µM.

And the TGI (SF-295 CNS)?
Its TGI is 27.7 µM.

And the GI50 (SF-539 CNS)?
The GI50 was 14.1 µM.

What about the TGI (SF-539 CNS) of the same compound?
Its TGI is 27.6 µM.

And the GI50 (SK-MEL-2 melanoma)?
The GI50 was 5.87 µM.

And the TGI (SK-MEL-2 melanoma)?
Its TGI is 18.1 µM.

And the GI50 (SK-MEL-28 melanoma)?
Its GI50 is 11.6 µM.

And the TGI (SK-MEL-28 melanoma)?
Its TGI is 23.8 µM.

And the GI50 (SK-MEL-5 melanoma)?
The GI50 was 3.44 µM.

And the TGI (SK-MEL-5 melanoma)?
Its TGI is 12.7 µM.

What about the GI50 (SK-OV-3 ovarian) of the same compound?
The GI50 was 10.9 µM.

And the TGI (SK-OV-3 ovarian)?
Its TGI is 23.3 µM.

What about the GI50 (SN12C renal) of the same compound?
The GI50 was 2.97 µM.

What about the TGI (SN12C renal) of the same compound?
The TGI was 11.6 µM.

What about the GI50 (SNB-19 CNS) of the same compound?
The GI50 was 14.3 µM.

What about the TGI (SNB-19 CNS) of the same compound?
The TGI was 27.8 µM.

And the GI50 (SNB-75 CNS)?
The GI50 was 13.2 µM.

What about the TGI (SNB-75 CNS) of the same compound?
The TGI was 25.9 µM.

What about the GI50 (SR leukemia) of the same compound?
Its GI50 is 2.4 µM.

And the TGI (SR leukemia)?
Its TGI is 9.02 µM.

What about the GI50 (SW-620 colon) of the same compound?
The GI50 was 13.7 µM.

What about the TGI (SW-620 colon) of the same compound?
The TGI was 30.7 µM.

What about the GI50 (T-47D breast) of the same compound?
Its GI50 is 2.74 µM.

And the TGI (T-47D breast)?
Its TGI is 13.9 µM.

And the GI50 (TK-10 renal)?
The GI50 was 12.2 µM.

What about the TGI (TK-10 renal) of the same compound?
The TGI was 25.4 µM.

What about the GI50 (U251 CNS) of the same compound?
Its GI50 is 10.7 µM.

What about the TGI (U251 CNS) of the same compound?
The TGI was 24.5 µM.

What about the GI50 (UACC-257 melanoma) of the same compound?
The GI50 was 11.5 µM.

And the TGI (UACC-257 melanoma)?
The TGI was 25.3 µM.

And the GI50 (UACC-62 melanoma)?
Its GI50 is 12.7 µM.

And the TGI (UACC-62 melanoma)?
Its TGI is 25.6 µM.

What about the GI50 (UO-31 renal) of the same compound?
The GI50 was 3.67 µM.

What about the TGI (UO-31 renal) of the same compound?
Its TGI is 16.4 µM.
